Source: US10544138B2, “Tricyclic kinase inhibitors of MELK and methods of use” (Dana-Farber Cancer Institute, Inc., priority 2015, dated 2020)

Tests used:
[1] = target: T1, BRSK1 (Homo sapiens, UniProt Q8TDC3); assay: Recombinant AMPK family kinase assay, BRSK1; assay type: biochemical; conditions: recombinant kinases
T1 sequence (Q8TDC3 1-778): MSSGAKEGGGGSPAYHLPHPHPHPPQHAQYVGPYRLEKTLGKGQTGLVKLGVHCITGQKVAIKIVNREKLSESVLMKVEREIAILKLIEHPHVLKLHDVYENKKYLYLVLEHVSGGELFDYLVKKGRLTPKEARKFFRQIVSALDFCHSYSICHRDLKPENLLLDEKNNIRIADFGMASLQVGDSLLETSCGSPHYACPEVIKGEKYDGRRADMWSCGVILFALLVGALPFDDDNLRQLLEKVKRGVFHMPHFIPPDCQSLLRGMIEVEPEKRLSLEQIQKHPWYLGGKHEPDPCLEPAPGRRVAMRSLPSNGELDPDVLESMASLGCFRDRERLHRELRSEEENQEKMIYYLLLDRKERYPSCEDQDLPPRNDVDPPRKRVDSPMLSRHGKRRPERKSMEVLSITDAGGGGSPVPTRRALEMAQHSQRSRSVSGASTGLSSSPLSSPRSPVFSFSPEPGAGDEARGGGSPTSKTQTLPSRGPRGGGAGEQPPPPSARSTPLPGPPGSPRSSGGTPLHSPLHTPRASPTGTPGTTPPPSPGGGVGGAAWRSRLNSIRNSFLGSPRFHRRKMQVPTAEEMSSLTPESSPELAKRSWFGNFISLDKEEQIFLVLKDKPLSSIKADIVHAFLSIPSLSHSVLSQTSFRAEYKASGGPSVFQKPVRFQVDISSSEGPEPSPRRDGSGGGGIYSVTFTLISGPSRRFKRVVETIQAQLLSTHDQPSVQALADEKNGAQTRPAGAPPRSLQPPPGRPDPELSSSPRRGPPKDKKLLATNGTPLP
Method: […] assays were performed with recombinant protein of the indicated mitotic kinase (left) and AMPK family kinases (right) in the presence of THZ-4-63-1. […] Cells were treated with nocodazole (100 ng/ml) for 18 h or not treated (Asyn., asynchronous). Nocodazole-arrested mitotic cells (M) were isolated via shake-off. The attached cells enriched in G2 phase (G2) were harvested. A portion of the mitotic cells were washed off nocodazole and released into G1 phase after 4 hours of incubation (G1). […] In Panel D, mitotic lysates were prepared from the indicated cells, and treated with λ-phosphatase at 30° C. In Panel E, nocodazole-arrested mitotic cells were treated with increasing concentration of THZ-4-63-1 for 30 min. Cell lysates were subjected to immunoblotting.
To discover a selective MELK inhibitor, a few molecule scaffolds with the potential of binding to MELK were identified, including 2,4-disubstituted pyrimidines and benzonaphthyridinones. […] To investigate if THZ-4-63-1 confers selective inhibition on MELK, we tested its effect on other mitotic kinases. In assays using recombinant kinases, MELK kinase activity was 20-fold more sensitive to THZ-4-63-1, than that of Aurora A, Aurora B, CDK1, or PLK1 (FIG. 1B).

[2] = system: basal breast cancer cells; assay: Proliferation of basal breast cancer cells; assay type: cell-based
Method: (§1) Mitotic cells were treated with THZ-4-63-1 at indicated concentrations for 4 h. Cells were collected for immunoblotting. Panel B contains time-lapse images of U2OS-(H2B-GFP) cells treated with THZ-4-63-1 (5 μM). […] Panel C contains blots showing proteasome-mediated degradation of Cyclin B1, Aurora B and MELK in THZ-4-63-1-induced mitotic slippage. Mitotic cells were treated as in Panel A with THZ-4-63-1 (5 μM), or MG132 (10 μM), or both for 4 h. Panel D contains a graph showing quantification of cell proliferation in the indicated breast cancer cell lines, which were treated with vehicle control or THZ-4-63-1 for one week (Top) and also contains bright-field images acquired from control cells or cells treated with THZ-4-63-1 (111 nM) (Bottom). […] Cells were treated with indicated drugs, and harvested in ten days for quantification of cell growth. The bold curve depicts the theoretic prediction of an additive action between paclitaxel and THZ-4-63-1.
With the identification of a selective MELK inhibitor, we next tested if THZ-4-63-1 is an effective agent for those cancer cells. […] The high potency of THZ-4-63-1 not only confirm the previous identification of MELK as an essential kinase for breast cancer, but also poise the compound itself for immediate translational implications.

[3] = system: Histone H3 phosphorylation at Thr3; assay: Histone H3 Thr3 phosphorylation in arrested mitotic cells, immunoblotting; assay type: cell-based; conditions: paclitaxel- or nocodazole-arrested mitotic cells, 30 min, with MG132
Method: Cell lysates were prepared for immunoblotting. […] HeLa cells were treated with DMSO or THZ-4-63-1 (5 μM) for 4 h followed by 1 h treatment of MG132 (10 μM). Cells were fixed and stained with anti-H3T3ph and anti-CREST. […] Cells were treated as in FIG. 2, Panel D, and additionally treated with MG132 (10 μM) for 1 h before fixation. The histogram indicates the quantification of H3S10ph signal. […] MCF-10A cells stably expressing empty vector (EV) or MELK were fixed for immunostaining. Images were captured with identical exposure time. H3T3ph intensity was quantified by the use of ImageJ. […] Recombinant MELK protein (kinase domain) was incubated with recombinant Histone H3 for 30 min at 30° C. Samples were subjected to immunoblotting using the indicated antibodies. […] Cells stably expressing GFP-MELK were fixed by formaldehyde and stained with anti-H3S10ph. […] Asynchronized (Async.) or nocodazole-arrested mitotic cells were subjected to fractionation, with sample prepared for immunoblotting. Panels H and I are images showing that MELK inhibition impairs the localization of chromosome passenger complex (CPC), indicated by the immunofluorescence detecting Survivin (G) and Aurora B (H). In addition to the presence of doxycyclin or THZ-4-63-1, cells were treated with nocodazole (0.33 μM) and MG132 (10 μM) for 3 h before fixation.
Cell lysates were prepared for immunoblotting. […]

[4] = system: MDA-MB-468; assay: Cell growth with paclitaxel combination in MDA-MB-468; assay type: cell-based, human; conditions: THZ-4-63-1 33.3 or 66.6 nM plus paclitaxel 2 nM
Method: as §1
Because microtubule-targeting chemotherapy is the mainstay of treatment for many types of cancer including basal-like breast cancer, we asked if MELK inhibition could combine with drugs that impair microtubule dynamics. […]

- Selectivity for MELK over BRSK1 [1]: preferentially targets MELK
- IC50 ([2]; 168 h, treated one week): ~50 nM
SMILES: CN(C)Cc1ccc(-n2c(=O)ccc3cnc4ccc(-c5cc(Cl)c(O)c(Cl)c5)cc4c32)cc1 [THZ-4-63-1]
- Cell death at low nanomolar dose ([2]; basal breast cancer cells): nearly complete cell death
- Histone H3 phosphorylation at Thr3 [3]: strong suppression
- Inhibition of cell growth, combined with paclitaxel [4]: ≥ 80%
